Measurements published in patent US7598417B2, “Substituted fluoroethyl ureas as alpha 2 adrenergic agents” (Allergan, Inc., priority 2007, dated 2009).
Like-named read-outs stand apart in the source and are kept apart here.

Assays:
Assay type in all cases: cell-based
[1] = target: T1, alpha2A receptor (Homo sapiens, UniProt P08913); experiment: Receptor Selection and Amplification Technology (RSAT) assay, alpha2A; conditions: for Alpha 2A IA (intrinsic activity): ratio of maximal effect of the drug to maximal effect of standard full agonist brimonidine (UK14304)
T1 construct: expressed in transfected cells; host or cells: NIH-3T3
T1 sequence (P08913 1-465): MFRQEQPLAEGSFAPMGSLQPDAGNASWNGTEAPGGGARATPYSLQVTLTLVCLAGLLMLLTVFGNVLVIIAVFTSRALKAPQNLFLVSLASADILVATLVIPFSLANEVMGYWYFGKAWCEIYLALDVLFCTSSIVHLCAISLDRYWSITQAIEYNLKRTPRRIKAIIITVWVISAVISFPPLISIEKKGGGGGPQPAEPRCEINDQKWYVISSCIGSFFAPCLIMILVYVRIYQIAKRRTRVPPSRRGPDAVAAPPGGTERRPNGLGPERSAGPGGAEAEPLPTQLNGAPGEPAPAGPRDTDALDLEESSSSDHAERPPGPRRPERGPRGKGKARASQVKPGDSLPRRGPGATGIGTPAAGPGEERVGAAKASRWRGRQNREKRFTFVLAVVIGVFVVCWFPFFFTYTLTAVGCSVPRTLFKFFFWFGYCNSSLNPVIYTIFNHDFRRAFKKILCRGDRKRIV
Method: (§1) Receptor Selection and Amplification Technology (RSAT) Assay
(§2) The RSAT assay measures a receptor-mediated loss of contact inhibition that results in selective proliferation of receptor-containing cells in a mixed population of confluent cells. The increase in cell number is assessed with an appropriate transfected marker gene such as β-galactosidase, the activity of which can be easily measured in a 96-well format. Receptors that activate the G protein, Gq, elicit this response. Alpha2 receptors, which normally couple to Gi, activate the RSAT response when coexpressed with a hybrid Gq protein that has a Gi receptor recognition domain, called Gq/i5.
(§3) NIH-3T3 cells are plated at a density of 2×10^6 cells in 15 cm dishes and maintained in Dulbecco's modified Eagle's medium supplemented with 10% calf serum. One day later, cells are cotransfected by calcium phosphate precipitation with mammalian expression plasmids encoding p-SV-β-galactosidase (5-10 μg), receptor (1-2 μg) and G protein (1-2 μg). 40 μg salmon sperm DNA may also be included in the transfection mixture. Fresh media is added on the following day and 1-2 days later, cells are harvested and frozen in 50 assay aliquots. Cells are thawed and 100 μl added to 100 μl aliquots of various concentrations of drugs in triplicate in 96-well dishes. Incubations continue 72-96 hr at 37° C. After washing with phosphate-buffered saline, β-galactosidase enzyme activity is determined by adding 200 μl of the chromogenic substrate (consisting of 3.5 mM o-nitrophenyl-β-D-galactopyranoside and 0.5% nonidet P-40 in phosphate buffered saline), incubating overnight at 30° C. and measuring optical density at 420 nm. The absorbance is a measure of enzyme activity, which depends on cell number and reflects a receptor-mediated cell proliferation. The efficacy or intrinsic activity is calculated as a ratio of the maximal effect of the drug to the maximal effect of a standard full agonist for each receptor subtype. Brimonidine, also called UK14304, the chemical structure of which is shown below, is used as the standard agonist for the alpha2A, alpha2B and alpha2C receptors. The EC50 is the concentration at which the drug effect is half of its maximal effect.
(§4) EC50 values are nanomolar. NA stands for “not active” at concentrations less than 10 micromolar. IA stands for “intrinsic activity.”

[2] = target: T2, alpha2B receptor (Homo sapiens, UniProt P18089); experiment: Receptor Selection and Amplification Technology (RSAT) assay, alpha2B; conditions: for Alpha 2B IA (intrinsic activity): ratio of maximal effect of the drug to maximal effect of standard full agonist brimonidine (UK14304)
T2 construct: expressed in transfected cells; host or cells: NIH-3T3
T2 sequence (P18089 1-450): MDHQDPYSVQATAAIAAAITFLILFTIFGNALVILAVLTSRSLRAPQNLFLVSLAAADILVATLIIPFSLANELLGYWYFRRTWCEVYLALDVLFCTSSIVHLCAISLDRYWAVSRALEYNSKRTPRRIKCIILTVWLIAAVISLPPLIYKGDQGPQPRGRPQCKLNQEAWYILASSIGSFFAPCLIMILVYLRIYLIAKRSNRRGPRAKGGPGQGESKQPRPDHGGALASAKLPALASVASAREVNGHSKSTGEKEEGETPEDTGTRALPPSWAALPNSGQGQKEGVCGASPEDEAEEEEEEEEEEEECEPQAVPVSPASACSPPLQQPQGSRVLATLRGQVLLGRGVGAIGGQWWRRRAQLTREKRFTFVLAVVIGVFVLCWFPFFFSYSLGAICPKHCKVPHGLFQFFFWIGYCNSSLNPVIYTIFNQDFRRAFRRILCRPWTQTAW
Method: as §1, §2, §3
The results of the RSAT assay with several exemplary compounds of the invention are disclosed in Table 1 above together with the chemical formulas of these exemplary compounds. EC50 values are nanomolar. NA stands for “not active” at concentrations less than 10 micromolar. IA stands for “intrinsic activity.”

[3] = target: T3, alpha2C receptor (Homo sapiens, UniProt P18825); experiment: Receptor Selection and Amplification Technology (RSAT) assay, alpha2C; conditions: for Alpha 2C IA (intrinsic activity): ratio of maximal effect of the drug to maximal effect of standard full agonist brimonidine (UK14304)
T3 construct: expressed in transfected cells; host or cells: NIH-3T3
T3 sequence (P18825 1-462): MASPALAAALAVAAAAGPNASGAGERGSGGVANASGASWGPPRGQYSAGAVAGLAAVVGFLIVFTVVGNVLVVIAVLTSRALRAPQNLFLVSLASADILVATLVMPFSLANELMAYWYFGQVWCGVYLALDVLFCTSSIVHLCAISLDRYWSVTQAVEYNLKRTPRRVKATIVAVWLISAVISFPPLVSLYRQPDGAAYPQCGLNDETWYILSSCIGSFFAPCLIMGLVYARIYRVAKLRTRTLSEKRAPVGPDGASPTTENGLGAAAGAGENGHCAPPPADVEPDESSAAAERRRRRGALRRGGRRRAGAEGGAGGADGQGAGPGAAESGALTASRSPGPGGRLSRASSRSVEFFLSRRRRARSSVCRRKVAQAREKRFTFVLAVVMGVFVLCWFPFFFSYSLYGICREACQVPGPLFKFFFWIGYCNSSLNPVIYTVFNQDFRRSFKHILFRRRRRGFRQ
Method: as §1, §2, §3, §4

[4] = RSAT, NIH-3T3 cells cotransfected with receptor and Gq/i5, not active = not active at concentrations less than 10 micromolar
[5] = RSAT, NIH-3T3 cells cotransfected with receptor and Gq/i5, not active = not active at concentrations less than 10 micromolar, read-out: Alpha 2B EC50
[6] = RSAT, NIH-3T3 cells cotransfected with receptor and Gq/i5, not active = not active at concentrations less than 10 micromolar, read-out: Alpha 2C EC50
[7] = RSAT, NIH-3T3 cells cotransfected with receptor and Gq/i5, not active = not active at concentrations less than 10 micromolar, read-out: Alpha 2A EC50

Row | Compound | Alpha 2A EC50 [1, 4] | EC50 [2, 5] [nM] | Alpha 2B IA (intrinsic activity) [2] | EC50 [3, 6] [nM] | Alpha 2C IA (intrinsic activity) [3] | EC50 [1, 7] [nM] | Alpha 2A IA (intrinsic activity) [1] | Alpha 2C EC50 [3, 4] | Alpha 2B EC50 [2, 4] | EC50 [1] [nM] | EC50 [2] [nM] | EC50 [3] [nM]
1 | O=C(NCCF)NC1CCCCc2ccc(F)cc21 (stereo not shown) |  | 913 | 0.54 | 341 | 0.3 | > 2000 | 0.31 |  |  |  |  | 
2 | COc1ccc2c(c1)C(NC(=O)NCCF)CC2 (stereo not shown) | not active | 300 | 0.81 | 1460 | 0.31 |  |  |  |  |  |  | 
3 | CCC1=CCCCC1NC(=O)NCCF (stereo not shown) |  |  | 1.22 |  | 0.59 |  | 0.64 |  |  | 184 | 45 | 348
4 | O=C(NCCF)NC1CCc2cc(F)ccc21 (stereo not shown) | not active | 88 | 0.59 | 543 | 0.54 |  |  |  |  |  |  | 
5 | Cc1c(Cl)ccc2c1C(NC(=O)NCCF)CC2 (stereo not shown) | not active | 85 | 0.6 |  |  |  |  | not active |  |  |  | 
6 | COc1cccc2c1CCC2NC(=O)NCCF (stereo not shown) |  | 121 | 0.72 | 1110 | 0.59 | 2070 | 0.48 |  |  |  |  | 
7 | CCC1=CC(NC(=O)NCCF)CCC1 (stereo not shown) | not active |  |  | 346 | 0.32 |  |  |  | not active |  |  | 
8 | O=C(NCCF)NC1C=C(CO)CCC1 (stereo not shown) | not active | 1260 | 0.58 | 2600 | 0.4 |  |  |  |  |  |  | 
9 | COc1cccc2c1C(NC(=O)NCCF)CC2 (stereo not shown) |  | 544 | 0.63 | 972 | 0.54 | 277 | 0.48 |  |  |  |  | 
10 | O=C(NCCF)NC1CCc2ccccc2C1 (stereo not shown) | not active | 226 | 0.63 |  |  |  |  | not active |  |  |  | 
11 | CC1=CC(NC(=O)NCCF)CCC1 (stereo not shown) | not active | 225 | 0.42 | 520 | 0.4 |  |  |  |  |  |  | 
12 | CCc1cccc2c1CCCC2NC(=O)NCCF (stereo not shown) |  | 158 | 0.93 | 904 | 0.34 | 450 | 0.32 |  |  |  |  | 
13 | O=C(NCCF)NC1Cc2ccc(Cl)cc2C1 (stereo not shown) | not active | 1780 | 0.31 |  |  |  |  | not active |  |  |  | 
14 | O=C(NCCF)NC1CCCc2occc21 (stereo not shown) | not active | 90 | 0.81 | 453 | 0.44 |  |  |  |  |  |  | 
15 | Cc1c(Br)ccc2c1C(NC(=O)NCCF)CC2 (stereo not shown) | not active | 238 | 0.37 |  |  |  |  | not active |  |  |  | 
16 | CCC1=C(C)C(NC(=O)NCCF)CC1 (stereo not shown) | not active | 319 | 0.88 | 886 | 0.37 |  |  |  |  |  |  | 
17 | O=C(NCCF)NC1CCc2ncccc21 (stereo not shown) |  | 100 | 1.08 | 2460 | 0.41 | 2550 | 0.55 |  |  |  |  | 

Continued by falling EC50 [2, 5], values first:

Row | Alpha 2A EC50 [1, 4] | EC50 [2, 5] [nM] | Alpha 2B IA (intrinsic activity) [2] | EC50 [3, 6] [nM] | Alpha 2C IA (intrinsic activity) [3] | EC50 [1, 7] [nM] | Alpha 2A IA (intrinsic activity) [1] | Alpha 2C EC50 [3, 4] | Alpha 2B EC50 [2, 4] | Compound | EC50 [1] [nM] | EC50 [2] [nM] | EC50 [3] [nM]
18 |  | 37 | 1.07 | 214 | 0.64 | 586 | 0.36 |  |  | CC1=C(C)C(NC(=O)NCCF)CC1 (stereo not shown) |  |  | 
19 |  | 36.6 | 1.0 | 1300 | 0.54 | 429 | 0.48 |  |  | Nc1cccc2c1CCC2NC(=O)NCCF (stereo not shown) |  |  | 
20 |  | 29 | 1.11 | 310 | 0.72 | 168 | 0.42 |  |  | O=C(NCCF)NC1CCCc2c(Cl)cccc21 (stereo not shown) |  |  | 
21 | not active | 20 | 0.54 | 60 | 0.47 |  |  |  |  | O=C(NCCF)NC1CCc2ccc(F)cc21 (stereo not shown) |  |  | 
22 |  | 20 | 1.01 | 716 | 0.97 | 111 | 0.52 |  |  | O=C(NCCF)NC1CCc2cccc(Br)c21 (stereo not shown) |  |  | 
23 |  | 12 | 0.99 | 86 | 0.7 | 343 | 0.63 |  |  | O=C(NCCF)NC1CCc2ccc(Cl)cc21 (stereo not shown) |  |  | 
24 | not active | 9.6 | 0.86 | 40 | 0.52 |  |  |  |  | O=C(NCCF)NC1CCCc2sccc21 (stereo not shown) |  |  | 
25 | not active | 7.5 | 1.57 | 41 | 0.63 |  |  |  |  | COc1cccc2c1CC(NC(=O)NCCF)C2 (stereo not shown) |  |  | 
26 |  | 7.2 | 1.05 | 103 | 0.78 | 29 | 0.68 |  |  | O=C(NCCF)NC1CCc2cccc(Cl)c21 (stereo not shown) |  |  | 
27 | not active | 6.3 | 1.21 | 192 | 0.64 |  |  |  |  | O=C(NCCF)NC1CCc2ccccc21 (stereo not shown) |  |  | 
28 |  | 2.7 | 1.06 | 103 | 0.7 | 64.6 | 0.97 |  |  | O=C(NCCF)NC1CCc2c(Br)cccc21 (stereo not shown) |  |  | 
